Source: US12358983B2, “Combination of anti CD19 antibody with a BCL-2 inhibitor and uses thereof” (Incyte Corporation, priority 2016, dated 2025)

Test system: MEC-1 cells
Test: Cytotoxicity (ADCC assay with NK effector cells) of MOR00208 and venetoclax alone and in combination in MEC-1 cells
Format: cell-based
From the text: Cell lines tested: MEC-1 cells (DSMZ# ACC497). Culture conditions of cell lines used are according to supplier's information. Cell Medium: lscove's Modified Dulbecco's Medium (IMDM), Invitrogen, Cat No.: 31980; RPMI1640, Invitrogen, Cat No.: 31870; GlutaMAX, Invitrogen, CAT No.: 35050; FCS: Sigma CAT No.: F7524 LOT No.: 111M3396. NKs: RPMI1640, with GlutaMAX, Invitrogen, Cat No.: 31870, 10% FCS; Biocoll: Biochrome AG CAT No.: L6115 LOT No.: 0034D; MACS NK cell isolation kit: Miltenyi Biotec CAT No.: 130-092-657 LOT No.: 5150402327; venetoclax: Selleck Chem. CAT No.: S8048 LOT No.: S804803; FCS: Sigma CAT No.: F7524 LOT No.: 111M3396; and RefmAb33 (anti-RSV) with same Fc region as MOR00208.
The cytotoxic potential of MOR00208 and venetoclax alone and in combination were tested in the MEC-1 cell line (CLL). Target cell killing is measured using the following parameters: venetoclax mono treatment at concentrations of 3 μM, 6.5 μM, and 10 μM; MOR00208 mono treatment at concentrations of 0.01 pM, 0.1 pM, 1 pM, 10 pM, 100 pM and 10 nM, and the combination treatment of the listed venetoclax and MOR00208 concentrations. The following are used as controls: RefnnAb33, NK cells alone, MEC-1 cells alone or DMSO. In the venetoclax mono groups as well as in the MOR00208+venetoclax combination groups, target cells were pretreated with venetoclax or with DMSO control for 24 hours followed by removal of the dead cells prior to the ADCC assay. A dead cell removal kit was used to remove cells killed by the cytotoxic effect of venetoclax. The dead cell removal kit was implemented to mimick the removal of dead cells that also occurs in vivo and to prevent false negative interference of the dead cells with the subsequent ADCC assay. For the ADCC assay, target cells are counted and stained using CFSE at a final concentration of 1 μg/mL. For the control group, i.e. DMSO treated target cells, the effector: target (E:T) cell ratio was adjusted to 2:1, i.e. 1×10E6/nnL effector cells (NK cells) and 5×10E5/mL target cells (MEC-1 cells). […] The ADCC assays were performed as follows: using 96 well plates, 100 μL of MEC-1 target cell suspension was added per well, followed by 100 μL NK effector cell suspension per well. Mixed cell suspensions were centrifuged and resuspended in 100 μL antibody containing medium or the according control solution. The antibodies were diluted in a range of 10 nM-0.01 pM (corresponds to 1.5 μg/mL-1.5 pg/mL) in medium. The ADCC assays were incubated for 2 hours in a CO2-incubator at 37° C. After 10 minutes incubation on ice, 50 μL DAPI solution was added to each well (final concentration 1 μg/mL) and incubated for additional 10 minutes on ice. The ADCC measurements were performed on a BD FACSVerse instrument. Dead target cells were identified as DAPI positive cells.
Combination Index (CI) calculations are completed in order to determine synergy of the combination of the exemplified anti-CD19 antibody and venetoclax as compared to MOR00208 and venetoclax alone. Such calculations are described in Ting-Chao Chou, Theoretical Basis, Experimental Design, and Computerized Simulation of Synergism and Antagonism in Drug Combination Studies, Pharmacol Rev 58:621-681 (2006), which is incorporated by reference in its entirety and Chou TC, Talalay P, Quantitative analysis of dose-effect relationships: the combined effects of multiple drugs or enzyme inhibitors. Adv Enzyme Regul 22: 27-55 (1984), which is incorporated by reference in its entirety. The methods of Chou-Talalay are carried out using the CI-isobol method.
The median-effect equation models the effect of an inhibitor (such as a drug) as Fa/Fu=(D/D50)^m, where D is the dose, Fa and Fu is the fraction of the system affected and unaffected by the dose D (Fa+Fu=1); D50 is the dose producing the median effect (e.g. IC50, ED50, LD50). The constant m determines the shape of the dose-effect curve.

For “MOR00208: anti-CD19 antibody; heavy chain SEQ ID NO: 14, light chain SEQ ID NO: 15”, the “Actual MOR00208 Effect” value (Exp 1, MOR00208 1.50E+00 μg/mL) was 69.4 % dead cells, the “Actual MOR00208 Effect” value (Exp 1, MOR00208 1.50E−02 μg/mL) was 66.8 % dead cells and the “Actual MOR00208 Effect” value (Exp 1, MOR00208 1.50E−03 μg/mL) was 43.4 % dead cells. For the same substance, the “Actual MOR00208 Effect” value (Exp 1, MOR00208 1.50E−04 μg/mL) was 22.8 % dead cells, the “Actual MOR00208 Effect” value (Exp 1, MOR00208 1.50E−05 μg/mL) was 17.4 % dead cells and the “Actual MOR00208 Effect” value (Exp 1, MOR00208 1.50E−06 μg/mL) was 15.3 % dead cells. The “Theoretical MOR00208 Dose” value (Exp 1, same effect as MOR00208 1.50E+00 μg/mL + venetoclax 3.0 μM) was “* 1.00E+03^ μg/mL”, the “Theoretical MOR00208 Dose” value (Exp 1, same effect as MOR00208 1.50E+00 μg/mL + venetoclax 6.5 μM) was “* 1.00E+03^ μg/mL” and the “Theoretical MOR00208 Dose” value (Exp 1, same effect as MOR00208 1.50E+00 μg/mL + venetoclax 10.0 μM) was “* 1.00E+03^ μg/mL”. The “Theoretical MOR00208 Dose” value (Exp 1, same effect as MOR00208 1.50E−02 μg/mL + venetoclax 3.0 μM) was 0.0304 µg/mL, the “Theoretical MOR00208 Dose” value (Exp 1, same effect as MOR00208 1.50E−02 μg/mL + venetoclax 6.5 μM) was “* 1.00E+03^ μg/mL” and the “Theoretical MOR00208 Dose” value (Exp 1, same effect as MOR00208 1.50E−02 μg/mL + venetoclax 10.0 μM) was “* 1.00E+03^ μg/mL”. The “Theoretical MOR00208 Dose” value (Exp 1, same effect as MOR00208 1.50E−03 μg/mL + venetoclax 3.0 μM) was 0.00125 µg/mL, the “Theoretical MOR00208 Dose” value (Exp 1, same effect as MOR00208 1.50E−03 μg/mL + venetoclax 6.5 μM) was 0.00404 µg/mL and the “Theoretical MOR00208 Dose” value (Exp 1, same effect as MOR00208 1.50E−03 μg/mL + venetoclax 10.0 μM) was 0.00914 µg/mL. For the same substance, the “Theoretical MOR00208 Dose” value (Exp 1, same effect as MOR00208 1.50E−04 μg/mL + venetoclax 3.0 μM) was 0.000132 µg/mL, the “Theoretical MOR00208 Dose” value (Exp 1, same effect as MOR00208 1.50E−04 μg/mL + venetoclax 6.5 μM) was 0.00041 µg/mL and the “Theoretical MOR00208 Dose” value (Exp 1, same effect as MOR00208 1.50E−04 μg/mL + venetoclax 10.0 μM) was 0.000543 µg/mL. The “Theoretical MOR00208 Dose” value (Exp 1, same effect as MOR00208 1.50E−05 μg/mL + venetoclax 3.0 μM) was 1.41e-05 µg/mL, the “Theoretical MOR00208 Dose” value (Exp 1, same effect as MOR00208 1.50E−05 μg/mL + venetoclax 6.5 μM) was 8.47e-05 µg/mL and the “Theoretical MOR00208 Dose” value (Exp 1, same effect as MOR00208 1.50E−05 μg/mL + venetoclax 10.0 μM) was 0.000163 µg/mL. For the same substance, the “Theoretical MOR00208 Dose” value (Exp 1, same effect as MOR00208 1.50E−06 μg/mL + venetoclax 10.0 μM) was 2.33e-05 µg/mL, the “Actual MOR00208 Effect” value (Exp 2, MOR00208 1.50E+00 μg/mL) was 74.8 % dead cells and the “Actual MOR00208 Effect” value (Exp 2, MOR00208 1.50E−02 μg/mL) was 69.6 % dead cells. The “Actual MOR00208 Effect” value (Exp 2, MOR00208 1.50E−03 μg/mL) was 55.9 % dead cells, the “Actual MOR00208 Effect” value (Exp 2, MOR00208 1.50E−04 μg/mL) was 40.3 % dead cells and the “Actual MOR00208 Effect” value (Exp 2, MOR00208 1.50E−05 μg/mL) was 34.5 % dead cells. For the same substance, the “Actual MOR00208 Effect” value (Exp 2, MOR00208 1.50E−06 μg/mL) was 29.7 % dead cells, the “Theoretical MOR00208 Dose” value (Exp 2, same effect as MOR00208 1.50E+00 μg/mL + venetoclax 3.0 μM) was “* 1.00E+03^ μg/mL” and the “Theoretical MOR00208 Dose” value (Exp 2, same effect as MOR00208 1.50E+00 μg/mL + venetoclax 6.5 μM) was “* 1.00E+03^ μg/mL”. For the same substance, the “Theoretical MOR00208 Dose” value (Exp 2, same effect as MOR00208 1.50E+00 μg/mL + venetoclax 10.0 μM) was “* 1.00E+03^ μg/mL”, the “Theoretical MOR00208 Dose” value (Exp 2, same effect as MOR00208 1.50E−02 μg/mL + venetoclax 3.0 μM) was “* 1.00E+03^ μg/mL” and the “Theoretical MOR00208 Dose” value (Exp 2, same effect as MOR00208 1.50E−02 μg/mL + venetoclax 6.5 μM) was “* 1.00E+03^ μg/mL”. For the same substance, the “Theoretical MOR00208 Dose” value (Exp 2, same effect as MOR00208 1.50E−02 μg/mL + venetoclax 10.0 μM) was “* 1.00E+03^ μg/mL”, the “Theoretical MOR00208 Dose” value (Exp 2, same effect as MOR00208 1.50E−03 μg/mL + venetoclax 3.0 μM) was 0.00188 µg/mL and the “Theoretical MOR00208 Dose” value (Exp 2, same effect as MOR00208 1.50E−03 μg/mL + venetoclax 6.5 μM) was 0.01 µg/mL.
